Earlier results on 1 compound are cited in patent publication US9125953B2, “Halogenated ether complex” (SAPIOTEC GMBH, priority 2010, dated 2015).

On to `OC[C@H]1O[C@@H]2O[C@H]3[C@H](O)[C@@H](O)[C@@H](O[C@H]4[C@H](O)[C@@H](O)[C@@H](O[C@H]5[C@H](O)[C@@H](O)[C@@H](O[C@H]6[C@H](O)[C@@H](O)[C@@H](O[C@H]7[C@H](O)[C@@H](O)[C@@H](O[C@H]1[C@H](O)[C@H]2O)O[C@@H]7CO)O[C@@H]6CO)O[C@@H]5CO)O[C@@H]4CO)O[C@@H]3CO` [α-cyclodextrin], for which the “solubility of unsubstituted α-cyclodextrin in water” value was 14.5 % by weight.
